This is an account of results in ChEMBL document CHEMBL4219062, “Design, synthesis and evaluation of γ-turn mimetics as LSD1-selective inhibitors” (Bioorg Med Chem, 2018).

Calls of active or inactive are those of the source. The calls are words filed in the database; no cut-off is given here.

In general, GI50 refers to the concentration that inhibits growth by half. A word on the IC50: it is the concentration needed to halve the response being measured. Lower therefore signals greater potency in that assay.

The test system of assay [1] is A549. The note with it: Homo sapiens, 10 uM.
Assay [2] concerns A549. The assay is described as follows: cells. The note with it: Homo sapiens, A549, 72 h, read-out: GI.
For assay [3], the system named is A549. The assay is described as follows: Cell cycle arrest in human A549 cells assessed as increase in G1 population at 2 uM measured after 24 hrs by propidium iodide staining based flow cytometric analysis. It counts as functional.
In assay [4] the test system is A549. The assay is described as follows: Cell cycle arrest in human A549 cells assessed as decrease in S population at 2 uM measured after 24 hrs by propidium iodide staining based flow cytometric analysis. It counts as functional.
Assay [5] concerns A549. The assay is described as follows: Cell cycle arrest in human A549 cells assessed as accumulation at sub-G1 population at 6 to 8 uM by propidium iodide staining based flow cytometric analysis. It counts as functional. The note with it: TDE = time-dependent effect.
In assay [6] the test system is A549. The assay can be described thus: cells. The note with it: Homo sapiens, A549, 72 h.
Description: Growth inhibition of human A549 cells after 72 hrs by Alamarblue assay
The target in assay [7] is T1, Amine oxidase [flavin-containing] A (Homo sapiens, UniProt P21397).
T1 sequence (P21397 whole entry): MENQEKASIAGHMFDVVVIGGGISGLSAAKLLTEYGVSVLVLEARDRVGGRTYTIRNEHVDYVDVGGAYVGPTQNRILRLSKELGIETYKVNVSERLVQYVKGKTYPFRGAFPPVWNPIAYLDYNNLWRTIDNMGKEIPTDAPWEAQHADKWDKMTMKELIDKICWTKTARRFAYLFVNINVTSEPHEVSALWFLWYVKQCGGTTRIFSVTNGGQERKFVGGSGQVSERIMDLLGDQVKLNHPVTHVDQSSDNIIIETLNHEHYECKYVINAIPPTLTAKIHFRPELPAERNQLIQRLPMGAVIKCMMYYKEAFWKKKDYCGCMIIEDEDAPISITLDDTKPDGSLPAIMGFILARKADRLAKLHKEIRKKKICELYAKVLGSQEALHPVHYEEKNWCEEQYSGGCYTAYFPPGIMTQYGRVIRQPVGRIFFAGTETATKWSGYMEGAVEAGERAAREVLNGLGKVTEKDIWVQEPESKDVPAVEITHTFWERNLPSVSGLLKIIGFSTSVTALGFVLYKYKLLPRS
The assay can be described thus: biochemical.
Description: Inhibition of recombinant human MAO-A expressed in baculovirus infected BTI insect cells using (4S)-4,5-dihydro-2-(6-hydroxybenzothiazolyl)-4-thiazolecarboxylic acid as substrate measured after 60 mins by chemiluminescence assay

Assay [8] concerns the target T2, Amine oxidase [flavin-containing] B (Homo sapiens, UniProt P27338).
T2 sequence (P27338 whole entry): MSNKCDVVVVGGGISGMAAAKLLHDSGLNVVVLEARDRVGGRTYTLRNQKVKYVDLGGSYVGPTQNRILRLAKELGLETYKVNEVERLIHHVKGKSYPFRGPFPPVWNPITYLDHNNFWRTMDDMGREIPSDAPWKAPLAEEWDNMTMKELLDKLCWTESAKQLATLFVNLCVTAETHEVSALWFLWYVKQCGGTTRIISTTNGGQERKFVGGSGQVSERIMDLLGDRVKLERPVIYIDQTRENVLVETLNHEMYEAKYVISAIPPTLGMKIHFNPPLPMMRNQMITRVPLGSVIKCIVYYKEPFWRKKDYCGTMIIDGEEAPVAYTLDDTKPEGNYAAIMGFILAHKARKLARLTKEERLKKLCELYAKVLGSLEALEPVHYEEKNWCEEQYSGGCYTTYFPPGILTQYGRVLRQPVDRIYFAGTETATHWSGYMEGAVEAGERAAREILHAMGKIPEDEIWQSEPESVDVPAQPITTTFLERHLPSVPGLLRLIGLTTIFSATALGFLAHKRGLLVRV
The assay can be described thus: biochemical.
Description: Inhibition of recombinant human MAO-B expressed in baculovirus infected BTI insect cells using (4S)-4,5-dihydro-2-(6-hydroxybenzothiazolyl)-4-thiazolecarboxylic acid as substrate measured after 60 mins by chemiluminescence assay

For `O=C(N[C@@H](CCCCN[C@@H]1C[C@H]1c1ccccc1)C(=O)NCc1ccccc1)c1ccccc1`, the “growth inhibition (GI)” value in the assay on A549 [1] is “inactive”.
For the compound `CNS(=O)(=O)c1cccc(-c2ccc([C@@H]3C[C@H]3NCCCCC3C(=O)N(Cc4ccccc4)CCN(c4ccccc4)C3=O)cc2)c1` (relative stereo), in the assay on A549 [2], the inhibition of growth at 10 µM came to 16%.
With `O=C1C(CCCCN[C@@H]2C[C@H]2c2ccccc2)C(=O)N(c2ccc(-c3ccccc3)cc2)CCN1Cc1cccc(Cl)c1` (relative stereo), the result in the assay with A549 [3] and in the assay with A549 [4] was Active. Also, the Activity result with A549 [5] was “Tde”. The inhibition of growth at 10 µM in the assay on A549 [2] was 100%. In the assay on A549 [6], this compound came in with a GI50 of 5.8 µM. Besides, the IC50 in assay [7] and in assay [8] was more than 100 µM throughout.
On to `CNC(=O)c1cccc(-c2ccc([C@@H]3C[C@H]3NCCCCC3C(=O)N(Cc4ccccc4)CCN(c4ccccc4)C3=O)cc2)c1` (relative stereo), for which the inhibition of growth at 10 µM in the assay with A549 [2] turned out to be 26%.
Consider `COc1cccc(-c2ccc([C@@H]3C[C@H]3NCCCCC3C(=O)N(Cc4ccccc4)CCN(c4ccccc4)C3=O)cc2)c1` (relative stereo), for which the inhibition of growth at 10 µM in the assay on A549 [2] was found to be 16%.
Take `O=C(N[C@@H](CCCCN[C@@H]1C[C@H]1c1ccccc1)C(=O)NCc1cccc(Cl)c1)c1ccc(-c2ccccc2)cc1`: the inhibition of growth at 10 µM in the assay with A549 [2] is 100%. The 50% growth inhibitory concentration (GI50) with A549 [6] was found to be 8.6 µM. The IC50 in assay [7] and in assay [8] was more than 100 µM in each case.
With `CNC(=O)c1cccc(-c2ccc([C@@H]3C[C@H]3NCCCCC3C(=O)N(Cc4cccc(Cl)c4)CCN(c4ccc(-c5ccccc5)cc4)C3=O)cc2)c1` (relative stereo), in the assay with A549 [2], the inhibition of growth at 10 µM was found to be 26%.
